# Tested on: monosodium urate (MSU) crystal-induced air pouch inflammation
# Test: Air Pouch Model 1: MSU crystal air pouch, rodent model of gout
# Format: in vivo, male Sprague-Dawley rats
# Conditions: for Average Exudate Volume / Average Plasma Extravasation, OD620 nm / Total WBC in Sample / WBC: +MSU, 4 h
# Method: The objective of this study was to evaluate the anti-inflammatory affects of tranilast versus a clinically active treatment for gout, colchicine, as well as a clinically active non-steroidal antiinflammatory drug, indomethacin. This evaluation was carried out in male Sprague-Dawley rats in a rodent model of gout. The animals were injected subcutaneously with 20 ml of sterile air, followed three days later by a supplemental injection with 20 ml of sterile air. Six days after the initial sterile air injection, the rats were injected intravenously with Evan's Blue and pretreated for thirty minutes with either a subcutaneous injection of colchicine (1 mg/kg) or indomethacin (5 mg/kg) or oral administration with either 200 mg/kg or 400 mg/kg of tranilast. After the pretreatment period, the rats were injected with 150 mg of monosodium urate (MSU) crystals (10 mg·ml) into the air pouch. Four hours later, the air pouch was injected with 5 ml heparinized saline and the entire contents of the air pouch removed, recording the total volume. The air pouch contents were evaluated for plasma extravasation and total white blood cell (WBC) count.
# (§1) On day 0 the rats were anesthetized in a biological cabinet, the nape of the neck was cleansed with 70% isopropanol followed by iodine tincture (VEDCO, lot L021976). Twenty ml sterile (0.22 μm, Fisher Scientific, Cat. 09-720-3, lot R5SN25683) air was injected subcutaneously using a 23 G×2 inch needle fixed to a 20 ml syringe. The rats were returned to routine housing. No adverse reactions were observed.
# as §1, with “day 3” for “day 0”
# On day 6 the rats were weighed (Mettler, Model PE3000, SN: F69474) and sorted into six treatment groups of ten animals each, based upon average weight. The animals were either dosed subcutaneously with 1 ml/kg colchicine or indomethacin, or orally with either 4 ml/kg or 8 ml/kg tranilast, or 8 ml/kg vehicle. Immediately after test material administration, the rats were intravenously injected with 2 ml/kg Evans Blue.
# Thirty minutes after test material administration, the rats were anesthetized and five groups were injected into the air pouch with 15 ml MSU using an 18 G×1 inch needle fitted to a 20 ml syringe. The sixth group was injected with 15 ml saline. The rats were returned to their cages, no adverse affects were observed.
# Four hours after MSU injection, the rats were anesthetized and 5 ml 10 U/ml heparinized saline was injected into the air pouch. The air pouch was gently massaged, the contents immediately removed using a 14 G×1 inch needle fitted to a 6 ml syringe, and the exudate volume recorded. An aliquot of the exudate was transferred to heparin-treated microtainer tubes (Becton Dickinson, Cat. 365958, lot 8093666, exp. June 09) for white blood cell (WBC) counting. The remainder of the exudate was centrifuged (Hermle Labrotechnik, Model Z200A, SN: 44060036), the supernatants removed and evaluated at OD620nm (Spectronic Unicam, Model 4000 1/4, SN: 3SGD003006) for plasma extravasation.
# [1] = Group 4: tranilast 200 mg/kg oral
# [2] = Group 5: tranilast 400 mg/kg oral
# [3] = oral tranilast 30 min before MSU, regardless of dose (200 or 400 mg/kg)
compound,measurement,setting,value
"COc1ccc(/C=C/C(=O)Nc2ccccc2C(=O)O)cc1OC [Tranilast, 2-[[3-(3,4-dimethoxyphenyl)-1-oxo-2-propenyl]amino]benzoic acid]",Average Exudate Volume,[1],6.5 mL
same,"Average Plasma Extravasation, OD620 nm",[1],0.697
same,Total WBC in Sample,[1],15925556
same,WBC,[1],2524444 cells/ml
same,Average Exudate Volume,[2],5.3 mL
same,"Average Plasma Extravasation, OD620 nm",[2],0.626
same,Total WBC in Sample,[2],15162222
same,WBC,[2],3144444 cells/ml
same,inhibition of plasma extravasation,[3],60%
same,inhibition of white blood cell infiltration,[3],95%

# Reference: US20100160351A1, “PHARMACEUTICAL COMPOSITIONS AND METHODS FOR TREATING HYPERURICEMIA AND RELATED DISORDERS” (NUON THERAPEUTICS, INC., priority 2008, published 2010)
